Assay results reported in the supplement of paper PMC10307832.

Assays:
Assay in all cases: relative viability (nuclei count vs DMSO), 5 days (fraction); higher = more cells survive
AGI-6780 + Foretinib = compound: O=C(Nc1cccc(C(F)(F)F)c1)Nc1cc(S(=O)(=O)NC2CC2)ccc1-c1ccsc1 [AGI-6780] + COc1cc2c(Oc3ccc(NC(=O)C4(C(=O)Nc5ccc(F)cc5)CC4)cc3F)ccnc2cc1OCCCN1CCOCC1 [Foretinib] (partner 0.25 µM)
In short: (§1)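 For relative viability, nuclei counts in treated wells were divided by those in vehicle wells. Lung cancer cell lines had been pin-tool dosed in 1536-well plates the day after seeding and cultured for 5 days, then fixed and stained in one step (final 0.05% Triton X-100, 1% formaldehyde, 1 ug/ml Hoechst) and imaged at 4×. Doses were one drug alone or a fixed anchor-drug dose plus five library-drug doses (not always all listed) in √10 steps, and values are duplicate-plate medians.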

AGI-6780 + Pictilisib = compound: O=C(Nc1cccc(C(F)(F)F)c1)Nc1cc(S(=O)(=O)NC2CC2)ccc1-c1ccsc1 [AGI-6780] + CS(=O)(=O)N1CCN(Cc2cc3nc(-c4cccc5[nH]ncc45)nc(N4CCOCC4)c3s2)CC1 [Pictilisib] (partner 1 µM)
In short: as §1

AGI-6780 + AZD7762 = compound: O=C(Nc1cccc(C(F)(F)F)c1)Nc1cc(S(=O)(=O)NC2CC2)ccc1-c1ccsc1 [AGI-6780] + NC(=O)Nc1cc(-c2cccc(F)c2)sc1C(=O)N[C@H]1CCCNC1 [AZD7762] (partner 0.2 µM)
In short: as §1

AGI-6780 + Vorinostat = compound: O=C(Nc1cccc(C(F)(F)F)c1)Nc1cc(S(=O)(=O)NC2CC2)ccc1-c1ccsc1 [AGI-6780] + O=C(CCCCCCC(=O)Nc1ccccc1)NO [Vorinostat] (partner 1 µM)
In short: as §1

Cell Line	relative viability (AGI-6780 + Foretinib; first compound 0.08 µM)	relative viability (AGI-6780 + Foretinib; first compound 0.253 µM)	relative viability (AGI-6780 + Foretinib; first compound 0.8 µM)	relative viability (AGI-6780 + Foretinib; first compound 2.53 µM)	relative viability (AGI-6780 + Foretinib; first compound 8 µM)	relative viability (AGI-6780 + Pictilisib; first compound 0.08 µM)	relative viability (AGI-6780 + Pictilisib; first compound 0.253 µM)	relative viability (AGI-6780 + Pictilisib; first compound 0.8 µM)	relative viability (AGI-6780 + Pictilisib; first compound 2.53 µM)	relative viability (AGI-6780 + Pictilisib; first compound 8 µM)	relative viability (AGI-6780 + AZD7762; first compound 0.08 µM)	relative viability (AGI-6780 + AZD7762; first compound 0.253 µM)	relative viability (AGI-6780 + AZD7762; first compound 0.8 µM)	relative viability (AGI-6780 + AZD7762; first compound 2.53 µM)	relative viability (AGI-6780 + AZD7762; first compound 8 µM)	relative viability (AGI-6780 + Vorinostat; first compound 0.08 µM)	relative viability (AGI-6780 + Vorinostat; first compound 0.253 µM)	relative viability (AGI-6780 + Vorinostat; first compound 0.8 µM)	relative viability (AGI-6780 + Vorinostat; first compound 2.53 µM)	relative viability (AGI-6780 + Vorinostat; first compound 8 µM)
NCI-H727	1.07	0.982	0.98	0.626	1.02	0.516	0.545	0.38	0.227	0.276	0.45	0.536	0.65	0.589	0.749	1.16	1.01	1.15	1.13	1.16
201T	1.09	1.08	1.2	1.09	1.05	0.699	0.735	0.686	0.647	0.702	0.612	0.577	0.565	0.535	0.656	0.991	0.98	1.06	0.951	1.04
PC-3 [JPC-3]	1.08	0.986	0.969	1.05	1.01	0.767	0.78	0.819	0.687	0.691		0.758	0.984	0.877	0.729		0.866	1.08	0.967	0.731
CAL-12T	1	1.15	1.13	1.34	1.11		0.575	0.531	0.717	0.644	0.616	0.649	0.806	0.781	0.687	0.884	0.729	1.16	0.662	0.732
NCI-H1355	0.956	0.98	1.06	0.911	1.04	0.492	0.503	0.5	0.326	0.437	0.792	0.812	0.769	0.663	0.655	0.696	0.724	0.671	0.569	0.687
RERF-LC-KJ	0.871	0.904	0.88	0.597	0.909	0.559	0.537	0.604	0.418	0.467	0.853	0.811	1.04	0.777	0.952	0.784	0.724	0.795	0.596	0.697
LK-2	1.23	1.15	1.21		1.53	0.413	0.461	0.601		0.505	0.374	0.412	0.63		0.501	0.334	0.286	0.347	0.259	0.567
NCI-H1944	1.03	0.885	0.93		0.869	0.358	0.366	0.386	0.323	0.381	0.538	0.516	0.515		0.55	0.641	0.523	0.575		0.579
HCC-827	1.09	1.09	1.1	0.938	1.03	0.896	0.916	1.03	0.856	0.823	0.223	0.269	0.356	0.236	0.187	0.983	0.849	0.896	0.802	1
NCI-H3122	0.971	0.959	1.08	1.03	0.983	0.584	0.563	0.625	0.548	0.62	0.983	1.08	1	0.91	1.05	1.03	0.805	0.843	0.832	1.02
EPLC-272H		0.762	0.891	0.489	0.619	0.39	0.33	0.257	0.344	0.318	0.2	0.369	0.345	0.278	0.219	0.351	0.401	0.318	0.554	0.289
NCI-H1651	0.87	0.824	0.715	0.692	0.796	0.547	0.673	0.495	0.509	0.511	0.42	0.495	0.463	0.518	0.434	0.481	0.568	0.509	0.545	0.661
NCI-H650	1.06	1.05	1.04	0.961	1.07	0.872	0.769	0.833	0.775	0.826	0.81	1.05	1.24	0.92	1.07	0.465	0.466	0.393	0.389	0.465
LOU-NH91	0.946	0.908	0.961	0.93	0.893	0.524	0.529	0.554	0.505	0.525	0.759	0.802	0.79	0.67	0.812	0.954	0.92	0.953	0.926	0.913
HARA	0.957	0.864	0.963	0.83	0.91	0.379	0.406	0.54	0.587	0.371	0.541	0.611	0.223	0.367	0.313	0.431	0.575	0.499	0.528	0.616
NCI-H596	0.978	1.01	0.788		1.06	0.419	0.399	0.376	0.382	0.476	1.18	1.06	1.1	0.891	1.01	0.519	0.533	0.602	0.502	0.642
LCLC-103H	0.883	0.745	0.702	0.652	0.748	0.582	0.681	0.516	0.457	0.663	0.716	0.812	0.712	0.647	0.792	0.746	0.861	0.759	0.576	0.781
